# Results from patent US12643910B2, “Substituted pyrazolo[3,4-b]pyridines as ectonucleotide pyrophosphatase/phosphodiesterase 1 (ENPP1) modulators” (SANFORD BURNHAM PREBYS MEDICAL DISCOVERY INSTITUTE, priority 2019, dated 2026).
# Legend:
# human ENPP1 = target: T1, human ENPP1 (Homo sapiens, UniProt P22413); experiment: ENPP1 assay with ATP substrate (Transcreener AMP2/GMP2 TR-FRET); type: biochemical; settings: 1 hour at room temperature
# T1 construct: made in house
# T1 sequence (P22413 1-925): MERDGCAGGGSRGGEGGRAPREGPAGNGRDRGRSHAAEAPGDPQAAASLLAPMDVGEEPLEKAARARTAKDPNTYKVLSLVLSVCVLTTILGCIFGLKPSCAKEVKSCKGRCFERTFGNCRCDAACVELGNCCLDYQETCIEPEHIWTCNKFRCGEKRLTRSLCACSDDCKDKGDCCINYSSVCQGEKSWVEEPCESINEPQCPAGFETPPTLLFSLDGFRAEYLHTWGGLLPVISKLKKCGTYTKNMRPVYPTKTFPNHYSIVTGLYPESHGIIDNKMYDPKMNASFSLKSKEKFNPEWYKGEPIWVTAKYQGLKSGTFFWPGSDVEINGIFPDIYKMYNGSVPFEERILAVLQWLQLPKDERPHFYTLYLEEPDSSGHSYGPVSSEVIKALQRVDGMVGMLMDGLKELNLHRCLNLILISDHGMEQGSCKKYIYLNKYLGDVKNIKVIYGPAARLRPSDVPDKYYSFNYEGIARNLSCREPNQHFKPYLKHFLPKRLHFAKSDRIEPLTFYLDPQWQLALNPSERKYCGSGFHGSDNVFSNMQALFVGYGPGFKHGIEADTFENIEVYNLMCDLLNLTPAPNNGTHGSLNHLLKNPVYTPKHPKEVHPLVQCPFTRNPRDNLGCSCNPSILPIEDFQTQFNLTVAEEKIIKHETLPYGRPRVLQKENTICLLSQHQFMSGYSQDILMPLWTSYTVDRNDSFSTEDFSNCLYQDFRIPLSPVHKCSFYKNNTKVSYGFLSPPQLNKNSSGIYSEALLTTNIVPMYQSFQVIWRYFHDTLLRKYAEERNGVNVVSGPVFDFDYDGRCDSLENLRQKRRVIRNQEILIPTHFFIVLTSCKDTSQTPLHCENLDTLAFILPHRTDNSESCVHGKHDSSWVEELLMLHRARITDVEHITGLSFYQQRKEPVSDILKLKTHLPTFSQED
# Source text: Example B1: ENPP1 Assay with ATP Substrate
# Ectonucleotide pyrophosphatase/phosphodiesterase 1 (ENPP1) hydrolyzes ATP, breaking it down into 5′-AMP and pyrophosphate. The 5′-AMP formed from the reaction is detected by Transcreener® AMP2/GMP2 TR-FRET Assay (Bellbrook), containing AMP-tracer (HiLyte 647) and anti-AMP Terbium (Tb) donor. 5′-AMP generated in the reaction competes with AMP-tracer for binding with Anti-AMP Tb donor, and decreases TR-FRET signal.
# Different concentrations of ENPP1 inhibitors are added to dry assay plate, followed by 2 μl 300 nM ATP. The reaction is initiated with the addition of 2 μl 8.5 μM human ENPP1 (generated by SBP Protein group). The assay reaction mixture contains a buffer of 50 mM Tris, pH 7.5, 1 mM TCEP, 2 mM MgCl2, 0.005% Tween 20, and 1% DMSO. The reaction is stopped after 1 hour at room temperature by adding 2 μL of 2 nM AMP-tracer and 2 μl of 2 nM Anti-AMP Tb donor in the 50 mM Tris, pH 7.5, buffer containing 20 mM EDTA and 0.1% Prionex. After 2 hour additional incubation at room temperature, the generated signal is measured using BMG Lab PHERASTAR instrument. 100% activity control samples (containing enzyme, substrate, buffer: MAX) and no enzyme control samples (containing substrate and buffer: MIN) are utilized to calculate percent inhibition (%) for each compound concentration well (COMPOUND) as follows.
# The IC50 values are determined by fitting the inhibition curves with 2-parameter variable slope model in Graphpad Prism software using percent inhibition vs compound concentration data: […]
# ENPP3 = target: T2, ENPP3 (Homo sapiens, UniProt O14638); experiment: ENPP3 Km ATP assay; type: biochemical; settings: ATP at Km
# T2 sequence (O14638 1-875): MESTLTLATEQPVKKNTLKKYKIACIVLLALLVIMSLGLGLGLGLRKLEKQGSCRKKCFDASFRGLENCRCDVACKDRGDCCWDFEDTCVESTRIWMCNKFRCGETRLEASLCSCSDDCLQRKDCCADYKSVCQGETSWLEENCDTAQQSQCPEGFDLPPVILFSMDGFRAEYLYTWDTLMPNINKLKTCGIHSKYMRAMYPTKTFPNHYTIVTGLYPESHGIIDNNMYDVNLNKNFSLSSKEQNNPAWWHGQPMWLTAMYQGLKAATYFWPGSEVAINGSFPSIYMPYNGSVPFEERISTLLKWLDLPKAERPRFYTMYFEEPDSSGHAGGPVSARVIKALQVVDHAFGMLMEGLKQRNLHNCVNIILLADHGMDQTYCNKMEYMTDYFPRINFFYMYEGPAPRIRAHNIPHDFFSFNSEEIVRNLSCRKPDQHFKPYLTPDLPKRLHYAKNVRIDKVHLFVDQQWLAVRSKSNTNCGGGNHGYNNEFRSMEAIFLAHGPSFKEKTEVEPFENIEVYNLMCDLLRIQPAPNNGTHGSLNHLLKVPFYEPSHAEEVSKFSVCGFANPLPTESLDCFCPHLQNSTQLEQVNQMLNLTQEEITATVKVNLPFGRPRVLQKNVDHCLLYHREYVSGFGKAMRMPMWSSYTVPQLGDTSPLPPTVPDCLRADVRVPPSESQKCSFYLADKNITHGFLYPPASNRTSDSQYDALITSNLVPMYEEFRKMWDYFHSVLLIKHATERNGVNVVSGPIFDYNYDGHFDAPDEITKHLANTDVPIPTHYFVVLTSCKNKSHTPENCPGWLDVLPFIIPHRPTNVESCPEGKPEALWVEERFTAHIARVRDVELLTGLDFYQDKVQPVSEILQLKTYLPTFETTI
Structure (SMILES),IC50 (human ENPP1) [µM],IC50 (ENPP3) [µM]
"c1ccc(-c2csc3nc(-c4ccccn4)nc(NCc4ccncc4)c23)cc1 [Example 1, 5-Phenyl-2-(pyridin-2-yl)-N-(pyridin-4-ylmethyl)thieno[2,3-d]pyrimidin-4-amine]",0.1 to 1,> 20
"c1ccc(-c2csc3nc(-c4ccccn4)nc(NCc4cccnc4)c23)cc1 [Example 1.1, 5-Phenyl-2-(pyridin-2-yl)-N-(pyridin-3-ylmethyl)thieno[2,3-d]pyrimidin-4-amine]",1 to 20,> 20
"COc1ccc(CNc2nc(-c3ccccn3)nc3scc(-c4ccccc4)c23)cc1 [Example 1.3, N-(4-Methoxybenzyl)-5-phenyl-2-(pyridin-2-yl)thieno[2,3-d]pyrimidin-4-amine]",> 20,> 20
"Fc1ccc(CNc2nc(-c3ccccn3)nc3scc(-c4ccccc4)c23)cc1 [Example 1.4, N-(4-Fluorobenzyl)-5-phenyl-2-(pyridin-2-yl)thieno[2,3-d]pyrimidin-4-amine]",> 20,> 20
"c1ccc(CNc2nc(-c3ccccn3)nc3scc(-c4ccccc4)c23)cc1 [Example 1.5, N-Benzyl-5-phenyl-2-(pyridin-2-yl)thieno[2,3-d]pyrimidin-4-amine]",> 20,> 20
"NS(=O)(=O)c1ccc(CNc2nc(-c3ccccn3)nc3scc(-c4ccccc4)c23)cc1 [Example 1.6, 4-(((5-Phenyl-2-(pyridin-2-yl)thieno[2,3-d]pyrimidin-4-yl)amino)methyl)benzenesulfonamide]",< 0.1,< 0.1
"Cc1ccc(CNc2nc(-c3ccccn3)nc3scc(-c4ccccc4)c23)cc1 [Example 1.7, (4-Methyl-benzyl)-(5-phenyl-2-pyridin-2-yl-thieno[2,3-d]pyrimidin-4-yl)-amine]",> 20,> 20
"Fc1ccccc1CNc1nc(-c2ccccn2)nc2scc(-c3ccccc3)c12 [Example 1.8, (2-Fluoro-benzyl)-(5-phenyl-2-pyridin-2-yl-thieno[2,3-d]pyrimidin-4-yl)-amine]",> 20,> 20
"Fc1cccc(CNc2nc(-c3ccccn3)nc3scc(-c4ccccc4)c23)c1 [Example 1.9, (3-Fluoro-benzyl)-(5-phenyl-2-pyridin-2-yl-thieno[2,3-d]pyrimidin-4-yl)-amine]",> 20,> 20
"Clc1ccc(CNc2nc(-c3ccccn3)nc3scc(-c4ccccc4)c23)cc1 [Example 1.10, (4-Chloro-benzyl)-(5-phenyl-2-pyridin-2-yl-thieno[2,3-d]pyrimidin-4-yl)-amine]",> 20,> 20
"N#Cc1ccc(CNc2nc(-c3ccccn3)nc3scc(-c4ccccc4)c23)cc1 [Example 1.11, 4-[(5-Phenyl-2-pyridin-2-yl-thieno[2,3-d]pyrimidin-4-ylamino)-methyl]-benzonitrile]",> 20,> 20
"NS(=O)(=O)c1ccc(CNc2nc(-c3ccccn3)nc3scc(-c4ccccc4)c23)cc1F [Example 1.13, 2-Fluoro-4-(((5-phenyl-2-(pyridin-2-yl)thieno[2,3-d]pyrimidin-4-yl)amino)methyl)benzenesulfonamide]",< 0.1,0.1 to 1
"NS(=O)(=O)c1ccc(CNc2nc(-c3ccccn3)nc3scc(-c4ccccc4)c23)cc1C(F)(F)F [Example 1.14, 4-(((5-Phenyl-2-(pyridin-2-yl)thieno[2,3-d]pyrimidin-4-yl)amino)methyl)-2-(trifluoromethyl)benzenesulfonamide]",< 0.1,0.1 to 1
"Cc1cc(S(N)(=O)=O)ccc1CNc1nc(-c2ccccn2)nc2scc(-c3ccccc3)c12 [Example 1.15, 3-Methyl-4-(((5-phenyl-2-(pyridin-2-yl)thieno[2,3-d]pyrimidin-4-yl)amino)methyl)-benzenesulfonamide]",0.1 to 1,0.1 to 1
"COc1cc(CNc2nc(-c3ccccn3)nc3scc(-c4ccccc4)c23)ccc1S(N)(=O)=O [Example 1.16, 2-Methoxy-4-(((5-phenyl-2-(pyridin-2-yl)thieno[2,3-d]pyrimidin-4-yl)amino)methyl)benzenesulfonamide]",0.1 to 1,1 to 20
"COc1cc(S(N)(=O)=O)ccc1CNc1nc(-c2ccccn2)nc2scc(-c3ccccc3)c12 [Example 1.17, 3-Methoxy-4-(((5-phenyl-2-(pyridin-2-yl)thieno[2,3-d]pyrimidin-4-yl)amino)methyl)-benzenesulfonamide]",< 0.1,1 to 20
"NS(=O)(=O)c1ccc(CNc2nc(-c3ccccn3)nc3scc(-c4ccccc4)c23)cc1Cl [Example 1.18, 2-Chloro-4-(((5-phenyl-2-(pyridin-2-yl)thieno[2,3-d]pyrimidin-4-yl)amino)methyl)-benzenesulfonamide]",< 0.1,0.1 to 1
"Cc1cc(CNc2nc(-c3ccccn3)nc3scc(-c4ccccc4)c23)ccc1S(N)(=O)=O [Example 1.19, 2-Methyl-4-(((5-phenyl-2-(pyridin-2-yl)thieno[2,3-d]pyrimidin-4-yl)amino)methyl)-benzenesulfonamide]",< 0.1,0.1 to 1
"NS(=O)(=O)c1ccc(CNc2nc(-c3ccccn3)nc3scc(-c4ccncc4)c23)cc1 [Example 1.20, 4-(((2-(Pyridin-2-yl)-5-(pyridin-4-yl)thieno[2,3-d]pyrimidin-4-yl)amino)methyl)-benzenesulfonamide]",1 to 20,> 20
"NS(=O)(=O)c1ccc(CNc2nc(-c3ccccn3)nc3scc(-c4ccccc4)c23)c(Cl)c1 [Example 1.21, 3-Chloro-4-(((5-phenyl-2-(pyridin-2-yl)thieno[2,3-d]pyrimidin-4-yl)amino)methyl)-benzenesulfonamide]",< 0.1,0.1 to 1
"NS(=O)(=O)c1ccc(CNc2nc(-c3ccccn3)nc3scc(-c4cccnc4)c23)cc1 [Example 1.22, 4-(((2-(Pyridin-2-yl)-5-(pyridin-3-yl)thieno[2,3-d]pyrimidin-4-yl)amino)methyl)-benzenesulfonamide]",< 0.1,1 to 20
"Cc1csc2c(N3CCC(NCC4CC4c4ccncc4)CC3)ncnc12 (stereo not shown) [Example 3.81, 1-(7-Methylthieno[3,2-d]pyrimidin-4-yl)-N-((2-(pyridin-4-yl)cyclopropyl)methyl)piperidin-4-amine]",0.1 to 1,
